Results from DBAASP.
Values after ≈ are worked out from the molar mass of the structure shown.

Legend:
Assay in all cases: ≥ marks a high value that may be exact or a test limit, other limits are often not marked, values filed in µg/mL are converted to µM
[1] = system: Staphylococcus aureus KCTC 1621
[2] = system: Staphylococcus epidermidis KCTC 1917
[3] = system: Salmonella typhimurium KCTC 1926
[4] = system: Pseudomonas aeruginosa KCTC 1637
[5] = system: Escherichia coli KCTC 1682
[6] = system: Bacillus subtilis KCTC 3068
[7] = system: Klebsiella pneumoniae ATCC 13883
[8] = system: Acinetobacter baumannii ATCC 19606
[9] = system: Staphylococcus aureus ATCC 25923
[10] = system: Salmonella enterica subsp. enterica serovar Typhimurium ATCC 14028
[11] = system: Escherichia coli
[12] = system: Staphylococcus aureus
[13] = system: Bacillus cereus
[14] = system: Pseudomonas aeruginosa ATCC 27853
[15] = system: Acinetobacter baumannii
[16] = system: Pseudomonas aeruginosa
[17] = system: Escherichia coli ATCC 25922
[18] = system: Klebsiella pneumoniae
[19] = system: Staphylococcus aureus ATCC 43300
[20] = system: Enterococcus faecalis ATCC 29212
[21] = system: Candida albicans ATCC 10231
[22] = system: Staphylococcus aureus ATCC 29213

CC[C@H](C)[C@H](NC(=O)[C@H](CCCCN)NC(=O)[C@H](CCCCN)NC(=O)[C@H](CC(C)C)NC(=O)[C@@H](N)CCCCN)C(=O)N[C@H](C(=O)N[C@H](C(=O)N[C@H](C(=O)N[C@@H](CCCCN)C(=O)N[C@H](C(=O)N[C@@H](CCCCN)C(=O)N[C@@H](CCCCN)C(N)=O)C(C)C)[C@@H](C)CC)C(C)C)C(C)C [KLKKIVVIKVKK]
MIC [1]: 8.78 µM (≈ 12.5 µg/mL) | MIC [2]: 2.2 µM (≈ 3.13 µg/mL) | MIC [3]: 2.2 µM (≈ 3.13 µg/mL) | MIC [4]: 17.6 µM (≈ 25 µg/mL) | MIC [5]: 8.78 µM (≈ 12.5 µg/mL) | MIC [6]: 8.78 µM (≈ 12.5 µg/mL)

CC[C@H](C)[C@H](N)C(=O)NCC(=O)N[C@@H](CCCCN)C(=O)N[C@@H](CC(C)C)C(=O)N[C@@H](Cc1ccccc1)C(=O)N[C@@H](CCCCN)C(=O)N[C@@H](CCCN=C(N)N)C(=O)N[C@H](C(=O)N[C@H](C(=O)N[C@@H](CCC(N)=O)C(=O)N[C@@H](CCCN=C(N)N)C(=O)N[C@H](C(=O)N[C@@H](CC(C)C)C(=O)N[C@@H](CCCCN)C(=O)N[C@@H](Cc1ccccc1)C(=O)N[C@@H](CC(C)C)C(=O)N[C@@H](CCCN=C(N)N)C(=O)N[C@@H](CC(N)=O)C(=O)N[C@@H](CC(C)C)C(=O)O)[C@@H](C)CC)C(C)C)[C@@H](C)CC [IGKLFKRIVQRILKFLRNL]
MIC [1]: 8 µM (≈ 18.8 µg/mL) | MIC [2]: 8 µM (≈ 18.8 µg/mL) | MIC [3]: 4 µM (≈ 9.42 µg/mL) | MIC [4]: 8 µM (≈ 18.8 µg/mL) | MIC [5]: 8 µM (≈ 18.8 µg/mL) | MIC [6]: 2 µM (≈ 4.71 µg/mL)

CC(C)C[C@H](NC(=O)[C@H](CC(C)C)NC(=O)[C@H](CCCN=C(N)N)NC(=O)[C@H](CCCN=C(N)N)NC(=O)[C@H](C)NC(=O)[C@H](Cc1c[nH]c2ccccc12)NC(=O)CNC(=O)[C@H](CCCN=C(N)N)NC(=O)[C@@H](N)CCCN=C(N)N)C(=O)N[C@@H](CCCN=C(N)N)C(=O)N[C@@H](C)C(=O)N[C@@H](Cc1ccccc1)C(=O)N[C@@H](C)C(=O)N[C@@H](Cc1ccccc1)C(=O)NCC(=O)N[C@@H](CCCN=C(N)N)C(=O)N[C@@H](CCCN=C(N)N)C(N)=O [RRGWARRLLRAFAFGRR]
MIC [7]: 30 µM (≈ 64.3 µg/mL) | MIC [8]: 2.7 µM (≈ 5.79 µg/mL) | MIC [9]: > 30 µM | MIC [10]: 2.9 µM (≈ 6.22 µg/mL)

CC(C)C[C@H](NC(=O)[C@H](CCCCN)NC(=O)[C@H](Cc1ccccc1)NC(=O)[C@@H](NC(=O)[C@@H](NC(=O)CNC(=O)[C@H](CC(C)C)NC(=O)[C@@H](N)Cc1ccccc1)C(C)C)C(C)C)C(=O)N[C@H](C(=O)N[C@@H](CO)C(=O)N[C@@H](CCCCN)C(=O)N[C@H](C(=O)N[C@@H](Cc1ccccc1)C(=O)N1CCC[C@H]1C(=O)N[C@@H](C)C(=O)N[C@H](C(=O)N[C@@H](Cc1ccccc1)C(=O)NCC(=O)N[C@@H](CCCCN)C(=O)N[C@H](C(=O)O)C(C)C)C(C)C)C(C)C)C(C)C [FLGVVFKLVSKVFPAVFGKV]
MIC [11]: 117 µM (≈ 256 µg/mL) | MIC [12]: 3.67 µM (≈ 8 µg/mL) | MIC [13]: 7.33 µM (≈ 16 µg/mL)

CC[C@H](C)[C@H](NC(=O)[C@H](CCCCN)NC(=O)CNC(=O)[C@H](C)NC(=O)[C@H](CCCCN)NC(=O)CNC(=O)[C@H](C)NC(=O)[C@@H](NC(=O)[C@H](CCCCN)NC(=O)[C@H](C)NC(=O)[C@@H](NC(=O)[C@H](CCCCN)NC(=O)CNC(=O)[C@H](C)NC(=O)[C@H](CCCCN)NC(=O)CNC(=O)[C@H](C)NC(=O)[C@@H](NC(=O)[C@@H](N)CCCCN)[C@@H](C)CC)[C@@H](C)CC)[C@@H](C)CC)C(=O)N[C@@H](C)C(N)=O [KIAGKAGKIAKIAGKAGKIA]
MIC [11]: > 64 µM | MIC [7]: ≥ 64 µM | MIC [12]: > 64 µM | MIC [8]: > 64 µM | MIC [14]: > 64 µM | MIC [15]: ≥ 64 µM | MIC [9]: > 64 µM | MIC [16]: > 64 µM | MIC [17]: > 64 µM | MIC [18]: > 64 µM

CC(C)C[C@H](NC(=O)CNC(=O)[C@H](Cc1ccccc1)NC(=O)[C@H](CC(C)C)NC(=O)[C@H](C)NC(=O)CN)C(=O)N[C@@H](C)C(=O)N[C@@H](CO)C(=O)N[C@@H](CCCCN)C(=O)N[C@H](C(=O)N[C@@H](Cc1ccccc1)C(=O)N1CCC[C@H]1C(=O)N[C@@H](C)C(=O)N[C@H](C(=O)N[C@@H](Cc1ccccc1)C(=O)NCC(=O)N[C@@H](C)C(=O)N[C@@H](Cc1ccccc1)C(=O)N[C@@H](CCCCN)C(=O)N[C@@H](CCCCN)C(=O)O)C(C)C)C(C)C [GALFGLASKVFPAVFGAFKK]
MIC [11]: 125 µM (≈ 256 µg/mL) | MIC [13]: ≥ 125 µM

CC(C)[C@H](NC(=O)CN)C(=O)N[C@@H](CO)C(=O)NCC(=O)N[C@@H](Cc1cnc[nH]1)C(=O)NCC(=O)N[C@@H](CCC(N)=O)C(=O)N[C@@H](Cc1cnc[nH]1)C(=O)NCC(=O)N[C@H](C(=O)N[C@@H](Cc1cnc[nH]1)C(=O)NCC(=O)O)C(C)C [GVSGHGQHGVHG]
MIC [19]: > 113 µM | MIC [20]: > 113 µM | MIC [14]: > 113 µM | MIC [21]: > 113 µM | MIC [17]: > 113 µM

CC[C@H](C)[C@H](NC(=O)[C@H](CC(C)C)NC(=O)CNC(=O)[C@@H](NC(=O)[C@@H](NC(=O)[C@H](C)NC(=O)[C@@H]1CCCN1C(=O)[C@@H](NC(=O)[C@@H](NC(=O)[C@H](CCCCN)NC(=O)[C@H](CO)NC(=O)[C@H](C)NC(=O)[C@H](CC(C)C)NC(=O)[C@H](CO)NC(=O)[C@H](Cc1ccccc1)NC(=O)[C@H](CC(C)C)NC(=O)[C@H](C)NC(=O)CN)C(C)C)C(C)C)C(C)C)[C@@H](C)CC)C(=O)N[C@@H](CCCCN)C(=O)N[C@@H](CCCCN)C(=O)O [GALFSLASKVVPAVIGLIKK]
MIC [11]: > 127 µM | MIC [13]: ≥ 127 µM

CC[C@H](C)[C@H](NC(=O)[C@@H](NC(=O)[C@H](CS)NC(=O)[C@H](Cc1ccc(O)cc1)NC(=O)[C@@H](NC(=O)[C@H](C)NC(=O)[C@@H]1CCCN1C(=O)[C@H](Cc1ccccc1)NC(=O)[C@@H](NC(=O)[C@H](CCCCN)NC(=O)[C@H](CO)NC(=O)[C@H](C)NC(=O)[C@H](CC(C)C)NC(=O)[C@H](CCCCN)NC(=O)CNC(=O)[C@H](CC(C)C)NC(=O)[C@H](C)N)C(C)C)C(C)C)[C@@H](C)O)C(=O)N[C@@H](CO)C(=O)N[C@@H](CCCN=C(N)N)C(=O)N[C@@H](CCCCN)C(=O)O [ALGKLASKVFPAVYCTISRK]
MIC [11]: 59.5 µM (≈ 128 µg/mL) | MIC [13]: ≥ 119 µM

CC(C)C[C@H](NC(=O)[C@H](CCCCN)NC(=O)[C@H](CCC(=O)O)NC(=O)[C@H](CC(C)C)NC(=O)[C@H](CC(C)C)NC(=O)[C@H](C)NC(=O)[C@H](CCCCN)NC(=O)[C@H](CC(C)C)NC(=O)[C@H](CCCCN)NC(=O)[C@H](CC(C)C)NC(=O)[C@H](CC(C)C)NC(=O)[C@H](CC(C)C)NC(=O)[C@H](Cc1c[nH]c2ccccc12)NC(=O)[C@H](CCCCN)NC(=O)[C@H](CC(C)C)NC(=O)[C@H](CC(C)C)NC(=O)[C@H](CCCCN)NC(=O)[C@@H](N)Cc1ccc(O)cc1)C(N)=O [YKLLKWLLLKLKALLEKL]
MIC [22]: 38.1 µM (≈ 84.8 µg/mL) | MIC [14]: 28.6 µM (≈ 63.6 µg/mL) | MIC [21]: > 76.3 µM

CC(C)C[C@H](NC(=O)[C@H](CCCCN)NC(=O)[C@@H]1CCCN1C(=O)[C@H](CC(C)C)NC(=O)[C@H](CC(C)C)NC(=O)CNC(=O)[C@H](CCCCN)NC(=O)[C@H](CC(C)C)NC(=O)[C@H](CCCCN)NC(=O)[C@@H]1CCCN1C(=O)[C@H](CC(C)C)NC(=O)[C@H](CC(C)C)NC(=O)[C@H](CC(C)C)NC(=O)[C@H](CCCCN)NC(=O)[C@H](CC(C)C)NC(=O)[C@H](CC(C)C)NC(=O)[C@H](CCCCN)NC(=O)[C@@H](N)Cc1ccc(O)cc1)C(N)=O [YKLLKLLLPKLKGLLPKL]
MIC [22]: 5.93 µM (≈ 12.4 µg/mL) | MIC [14]: 5.86 µM (≈ 12.2 µg/mL) | MIC [21]: 40 µM (≈ 83.6 µg/mL)

CC[C@H](C)[C@H](NC(=O)[C@H](CC(=O)O)NC(=O)[C@H](CCCCN)NC(=O)[C@@H](NC(=O)[C@H](CC(C)C)NC(=O)[C@H](CO)NC(=O)[C@H](CCSC)NC(=O)[C@H](CC(C)C)NC(=O)CN)C(C)C)C(=O)N[C@@H](C)C(=O)N[C@@H](CCCCN)C(=O)N[C@@H](CC(C)C)C(=O)N[C@@H](C)C(=O)N[C@@H](C)C(=O)N[C@@H](CCCCN)C(=O)N[C@@H](CCC(N)=O)C(=O)NCC(=O)N[C@@H](C)C(=O)N[C@@H](CCCCN)C(=O)N[C@@H](CCC(N)=O)C(=O)O [GLMSLVKDIAKLAAKQGAKQ]
MIC [11]: 124 µM (≈ 256 µg/mL) | MIC [13]: ≥ 124 µM
